Measurements: the NIST ThermoML archive (doi:10.1021/acs.jced.9b00354)
Numbers after ± are expanded uncertainties.

Assay: mn = molality of the nth substance listed, in mol/kg
Conditions: 308.15 K, 100 kPa, Liquid, m1 = 0.0148

speed of sound (Single path-length method): 1521.4 ± 0.7 m/s
mass density (Vibrating tube method): 995.9 ± 10 kg/m3
SMILES: O=S(=O)([O-])[O-].[Ca+2] [calcium sulfate] + O
